Data: ChEMBL document CHEMBL5727720, “Bruton's tyrosine kinase inhibitors” (2020)

Target: Tyrosine-protein kinase BTK (Homo sapiens, UniProt Q06187)
Assay: Kinase Assay: Measurements were performed in a reaction volume of 15 μL using 384-well assay plates. Kinase enzyme, inhibitor, ATP and 1 μM peptide substrate were incubated in a reaction buffer compose of Hepes 50 mM (pH7.0), NaN3 0.02%, BSA 0.01%, Orthocanadate 0.1 mM. After one hour, the kinase reaction was quenched by the addition of […] antibody and XL-665 in 1×Detection buffer containing 60 mM EDTA (Cisbio), and the mixture was allowed to incubate for one hour. The HTRF signal was measured on a multimode plate reader (EnVision® Multilabel Reader, Perkin Elmer) with an excitation wavelength (λEx) of 330 nm and detection wavelengths (λEm) of 615 and 665 nm. Activity was determined by the ratio of the fluorescence at 665 nm to that at 615 nm. For each compound, enzyme activity as measured at various concentrations of compound, Negative control reactions were performed in the absence of inhibitor in two replicates and eight no enzyme controls.

Chain of Tyrosine-protein kinase BTK (Q06187 whole entry): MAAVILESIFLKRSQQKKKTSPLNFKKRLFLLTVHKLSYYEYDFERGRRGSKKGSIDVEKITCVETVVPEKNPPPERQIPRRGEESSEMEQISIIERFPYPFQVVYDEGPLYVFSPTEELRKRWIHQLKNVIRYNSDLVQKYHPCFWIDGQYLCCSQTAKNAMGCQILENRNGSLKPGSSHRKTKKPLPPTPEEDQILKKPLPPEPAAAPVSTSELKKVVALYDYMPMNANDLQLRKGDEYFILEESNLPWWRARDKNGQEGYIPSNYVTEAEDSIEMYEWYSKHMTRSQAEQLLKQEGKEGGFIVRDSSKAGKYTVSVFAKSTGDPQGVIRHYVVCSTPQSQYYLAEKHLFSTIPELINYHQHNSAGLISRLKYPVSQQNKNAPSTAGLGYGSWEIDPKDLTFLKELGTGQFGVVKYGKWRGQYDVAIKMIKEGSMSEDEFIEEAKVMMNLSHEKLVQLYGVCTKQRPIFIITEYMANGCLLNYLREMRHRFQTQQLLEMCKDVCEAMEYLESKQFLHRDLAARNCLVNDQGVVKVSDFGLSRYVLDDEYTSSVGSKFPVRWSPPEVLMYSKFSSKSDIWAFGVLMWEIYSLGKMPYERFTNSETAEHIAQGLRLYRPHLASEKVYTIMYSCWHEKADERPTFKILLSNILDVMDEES

Structure (SMILES)	IC50
C=CC(=O)N1CCC[C@@H](n2nc(-c3ccc(Oc4cccc(OC)c4Cl)cc3)c3cncc(OC(C)C)c32)C1	< 10 nM
C=CC(=O)N1CC[C@@H](n2nc(-c3ccc(Oc4cccc(OC)c4Cl)cc3)c3cncc(OCC)c32)C1	< 10 nM
C=CC(=O)N1CCC[C@@H](n2nc(-c3ccc(Oc4cccc(OC)c4Cl)cc3)c3cncc(OC4CCOC4)c32)C1 (some centres not stated)	< 10 nM

Results, then the compound that gave them:

IC50	Structure (SMILES)
< 10 nM	C=CC(=O)N1CCC[C@@H](n2nc(-c3ccc(Oc4cccc(OC)c4Cl)cc3)c3cncc(OCC)c32)C1
< 10 nM	C=CC(=O)N1CCC[C@@H](n2nc(-c3ccc(Oc4cccc(OC)c4Cl)cc3)c3cncc(OC)c32)C1
< 10 nM	C=CC(=O)N1CCC[C@@H](n2nc(-c3ccc(Oc4cccc(OC)c4Cl)cc3)c3cncc(OCCCC)c32)C1
< 10 nM	C=CC(=O)N1CCC[C@@H](n2nc(-c3ccc(Oc4cccc(OC)c4Cl)cc3)c3cncc(OCCC)c32)C1
